According to US20210030757A1, “METHOD OF TREATMENT AND COMPOSITIONS COMPRISING A DUAL P13K DELTA-GAMMA KINASE INHIBITOR AND A CORTICOSTEROID” (priority 2014, published 2021):

How the values were obtained:
[1] = tested on: human neutrophils from healthy volunteers; assay: CSE-induced IL-8 release in peripheral blood neutrophils from healthy non-smokers; format: cell-based; settings: stimulus CSE 5%, 6 h, mean ± SEM; for IC50: Homo sapiens, Neutrophil, read-out: −log IC50 (IL-8 release) (converted)
Experimental: (§1) Neutrophils were isolated from peripheral venous blood by standard laboratory procedures. In brief, peripheral venous blood was mixed with dextran 500 at 3% (in 0.9% saline) in a proportion of 2:1. This mixture was incubated at room temperature for 30 min until erythrocytes were sedimented. The upper phase was carefully collected and added on Ficoll-Paque Histopaque 1077 (Amershan Pharmacia Biotech, Barcelona, Espana) density gradient in a proportion of 3:1. The two phases generated were centrifuged at 150 g, 4° C. for 30 min. Thus, the pellet obtained (which is consisted a mixture of neutrophils and low proportion of residual erythrocytes and traces of eosinophils and basophils) was resuspended in an erythrocyte lysis buffer (Biolegend, UK) for 5 min in ice. Cell suspension was washed two times with phosphate buffer (PBS). […] Neither purity nor viability was affected in the study's different experimental conditions.
(§2) CSE was prepared as follows: Briefly, the smoke of a research cigarette (2R4F; Tobacco Health Research, University of Kentucky, Ky., USA) was generated by a respiratory pump (Apparatus Rodent Respirator 680; Harvard, Germany) through a puffing mechanism related to the human smoking pattern (3 puff/min; 1 puff 35 ml; each puff of 2 s duration with 0.5 cm above the filter) and was bubbled into a flask containing 25 ml of pre-warmed (37° C.) Roswell Park Memorial Institute (RPMI)-1640 culture medium. The CSE solution was sterilized by filtration through a 0.22-μm cellulose acetate sterilizing system (Corning, N.Y.). The resultant CSE solution was considered to be 100% CSE and was used for experiments within 30 min of preparation. CSE 10% corresponds approximately to the exposure associated with smoking two packs per day. The quality of the prepared CSE solution was assessed based on the absorbance at 320 nm, which is the specific absorption wavelength of peroxynitrite. Stock solutions with an absorbance value of 3.0±0.1 were used. To test for cytotoxicity from CSE, isolated neutrophils were treated with CSE concentrations of up to 5% for […].
(§3) Isolated human neutrophils from healthy volunteers and COPD patients were incubated with Compound A (0.01 nM-100 μM) and Dexamethasone (0.1 nM-1 μM) or vehicle for 30 minutes before incubation with or without CSE 5% for 6 hours in standard cell culture conditions (37° C. and 5% CO2). Supernatants were collected to measure different inflammatory markers.
(§4) IL-8 was measured by ELISA using a commercially available kit.
(§5) Experiments were done in triplicate in […] three patients per experimental condition.
(§6) Neutrophils from healthy and COPD patients were stimulated with CSE 5% in the presence of Compound A (0.01 nM-100 μM) or dexamethasone (DEX; 0.1 nM-1 μM) for 6 h and IL-8 supernatants were measured.

PI3K = PI3K activity (PIP3 production, PI3-Kinase Activity ELISA) in neutrophils from COPD patients; format: cell-based, human; settings: Compound A 10 nM, 1 h, CSE 5% 30 min
Experimental: Measurement of Pi3K isoforms: To measure PI3K activity, neutrophils from COPD patients were isolated and incubated with Compound A at 10 nM for 1 h. Then cells were stimulated with CSE 5% for 30 min. After cell stimulation, neutrophils were centrifuged and total protein was extracted from neutrophils. Total protein amount was measured using The Bio-Rad assay (Bio-Rad Laboratories Ltd., Herts, UK) to ensure equal amount. PI3K activity was measured using the PI3-Kinase Activity ELISA: Pico (cat. no k-1000 s, Echelon Bioscience, Salt Lake City, USA) according to the manufacturer's protocol. In brief, PI3-K reactions were run with the Class I PI3-K physiological substrate PI(4,5)P2 (PIP2). The enzyme reactions, PIP3 standards and controls were then mixed and incubated with PIP3 binding protein that is highly specific and sensitive to PIP3. This mixture was then transferred to a PIPI3-coated microplate for competitive binding. Afterwards, a peroxidase-linked secondary detector and colorimetric detection was used to detect the amount of PIP3 produced by PI3-K through comparing the enzyme reactions with a PIP3 standard curve.
(§7) Experiments were done in triplicate in at least three patients per experimental condition.

Balb/c mice [2] = assay: Reversal of corticosteroid insensitivity in chronic cigarette smoke induced cell infiltration in male Balb/c mice; format: in vivo; settings: Mus musculus, Macrophage, inhaled or nasal; murine chronic COPD model; intranasal; read-out: ED50 (cell count in BAL, macrophage infiltration)
Experimental: Animals were acclimatized for seven days prior to the start of the experiment. Animals were randomly distributed to various groups based on their body weights. Mice were exposed to the mainstream smoke of 2 cigarettes from day 1 to day 11. Exposure to the smoke of each cigarette lasted for 10 min (each cigarette was completely burned in the first two minutes, followed by an air flow with animal ventilator) and were exposed for the next 20 min with fresh room air. After every second cigarette an additional break of 20 min with exposure to fresh room air was conducted. Control animals were exposed to the room air chamber. Corticosteroid, fluticasone was administered by intranasal route from day 6 to day 11 before 30 mins whole body smoke exposure. Mice were exposed to the mainstream smoke of 1 cigarette from day 12 to day 14. […] The total number of white blood cells was determined in BAL fluid and blood using a blood cell counter and adjusted to 1×10^6 cell/ml. Differential cell count was calculated manually. […] The number of each cell type among 300 white blood cells in the cell smear was determined and expressed as a percentage, and the number of neutrophils and macrophages in each BAL fluid were calculated. In addition BAL supernatant were analysed for various cytokines using ELISA assay.

MKP-1 = MKP-1 mRNA expression in peripheral neutrophils from COPD patients (RT-PCR); format: cell-based, human; settings: CSE 5%; 10 nM or 100 nM Compound A
Experimental: (§8) Measurement of basal RNA expression of corticosteroid resistant mediators: Total RNA was isolated from peripheral human neutrophils from COPD patients in basal conditions and after experimental conditions. Cells were homogenized and RNA was extracted using TriPure® Isolation Reagent (Roche, Indianapolis, USA). The reverse transcription was performed in 300 ng of total RNA with TaqMan reverse transcription reagents kit (Applied Biosystems, Perkin-Elmer Corporation, CA, USA). 1.5 μl of result cDNA was amplified with specific predesigned primers (Applied Biosystems) for MIF (cat no Hs00236988), MKP-1 (cat no Hs00610256), PI3K-δ (cat n° Hs00192399), PI3Kγ (cat n° Hs00277090) and GAPDH (cat no 4310884E) as endogenous control in a 7900HT Fast Real-Time PCR System (Applied Biosystem) using Universal Master Mix (Applied Biosystems). Relative quantification of these different transcripts was determined with the 2^−ΔΔct method and normalized to control groups.
(§9) mRNA expression of the MIF, MKP-1, PI3K-δ and PI3Kγ genes was measured in basal conditions and at the end of the experiments.
as §7

[3] = tested on: human neutrophils from COPD patients; assay: CSE-induced IL-8 release in peripheral blood neutrophils from COPD patients; format: cell-based; settings: stimulus CSE 5%, 6 h, mean ± SEM; for IC50: Homo sapiens, Neutrophil, read-out: −log IC50 (IL-8 release) (converted)
Experimental: as §1, §2, §3, §4, §5, §6

MIF = MIF mRNA expression in peripheral neutrophils from COPD patients (RT-PCR); format: cell-based, human; settings: CSE 5%; Compound A exposure
Experimental: as §8, §9, §7

PI3Kγ = PI3Kγ mRNA expression in peripheral neutrophils from COPD patients (RT-PCR); format: cell-based, human; settings: CSE 5%; 10 nM or 100 nM Compound A
Experimental: as §8, §9, §7

Balb/c mice [4] = assay: Chronic cigarette smoke induced cell infiltration in male Balb/c mice (BALF cells and cytokines); format: in vivo
Experimental: Animals were acclimatized for seven days prior to the start of the experiment. Animals were randomly distributed to various groups based on their body weights. Mice were exposed to the mainstream smoke of 2 cigarettes from day 1 to day 11. Exposure to the smoke of each cigarette lasted for 10 min (each cigarette was completely burned in the first two minutes, followed by an air flow with animal ventilator) and were exposed for the next 20 min with fresh room air. After every second cigarette an additional break of 20 min with exposure to fresh room air was conducted. Control animals were exposed to the room air chamber. Test compound was administered by the intranasal route as suspension from day 12 to day 14 before 30 mins whole body smoke exposure. Mice were exposed to the mainstream smoke of 1 cigarette from day 12 to day 14. On day 15, 24 hours after the last cigarette smoke (CS) exposure animals were exsanguinated under anaesthesia, and the trachea was cannulated and the lungs were lavaged with 0.5 ml aliquots of heparinised PBS (1 unit/ml) four times through tracheal cannula (total volume 2 ml). Bronchioalveolar (BAL) collected was stored at 2-8° C. until assayed for total cell and differential leukocyte count. BAL fluid was centrifuged (500×g for 10 min) and the resulting cell pellet was resuspended in 0.5 ml of heparinised saline. The total number of white blood cells was determined in BAL fluid and blood using a blood cell counter and adjusted to 1×10^6 cell/ml. Differential cell count was calculated manually. Forty microliters of the cell suspension was centrifuged using cytospin 3 to prepare a cell smear. The cell smear was stained with a blood staining solution for differentiation and microscopically observed by identifying each cell according to its morphological characteristics. The number of each cell type among 300 white blood cells in the cell smear was determined and expressed as a percentage, and the number of neutrophils and macrophages in each BAL fluid were calculated. In addition BAL supernatant were analysed for various cytokinines using ELISA assay.

SMILES: CC(C)Oc1ccc(-c2nn([C@@H](C)c3oc4cccc(F)c4c(=O)c3-c3cccc(F)c3)c3ncnc(N)c23)cc1F [Compound A]
- IC50 [1]: 295 nM
- Maximal % Inhibition of IL-8 release [1]: 97.4±5.3%
- PI3K activity measured as PIP3 production (PI3K): completely suppressed
- ED50 (Balb/c mice [2]): 0.093 mg/kg
- expression of MKP1 (mRNA) (MKP-1): increased the expression of MKP1 near to control levels
- IC50 [3]: 47.9 nM
- Maximal % Inhibition of IL-8 release [3]: 85.14%
- expression of MIF (mRNA) (MIF): not significantly affected
- CSE induced PI3Kγ expression (mRNA) (PI3Kγ): significant reduction
- Macrophage count in BAL fluid (Balb/c mice [4]; 0.003-3 mg/kg intranasal, day 12 to 14, vs disease controls): significantly reduced toward normal
- IFNγ in BALF (% inhibition) (Balb/c mice [4]; dose 0.003 mg/kg intranasal): 0%
- IL-6 in BALF (% inhibition) (Balb/c mice [4]; dose 0.003 mg/kg intranasal): 11%
- IL-12/IL-23 in BALF (% inhibition) (Balb/c mice [4]; dose 0.003 mg/kg intranasal): 0%
- TNFα in BALF (% inhibition) (Balb/c mice [4]; dose 0.003 mg/kg intranasal): 17%
- IFNγ in BALF (% inhibition) (Balb/c mice [4]; dose 0.03 mg/kg intranasal): 25%
- IL-6 in BALF (% inhibition) (Balb/c mice [4]; dose 0.03 mg/kg intranasal): 44%
- IL-12/IL-23 in BALF (% inhibition) (Balb/c mice [4]; dose 0.03 mg/kg intranasal): 0%
- TNFα in BALF (% inhibition) (Balb/c mice [4]; dose 0.03 mg/kg intranasal): 40%
- IFNγ in BALF (% inhibition) (Balb/c mice [4]; dose 0.3 mg/kg intranasal): 90%
- IL-6 in BALF (% inhibition) (Balb/c mice [4]; dose 0.3 mg/kg intranasal): 99%
- IL-12/IL-23 in BALF (% inhibition) (Balb/c mice [4]; dose 0.3 mg/kg intranasal): 100%
- TNFα in BALF (% inhibition) (Balb/c mice [4]; dose 0.3 mg/kg intranasal): 99%

SMILES: C[C@@H]1C[C@H]2[C@@H]3CCC4=CC(=O)C=C[C@]4(C)[C@@]3(F)[C@@H](O)C[C@]2(C)[C@@]1(O)C(=O)CO [dexamethasone, reference compound]
- IC50 [1]: 14.1 nM
- Maximal % Inhibition of IL-8 release [1]: 83.9%
- IC50 [3]: 13.5 nM
- Maximal % Inhibition of IL-8 release [3]: 19.84 ± 11.46 %
